The text below walks through data of paper PMC5011688, “Polysaccharide enhances Radix Saposhnikoviae efficacy through inhibiting chromones decomposition in intestinal tract” (Scientific Reports, 2016).

Series [1] in a line: Pharmacokinetic measurement of chromone (cimifugin in rat plasma after oral chromone extracts). The format is in vivo, Sprague-Dawley rats. To be noted: for Tmax: male, Sprague-Dawley, rat, plasma, po, 4 g crude drug/kg, oral chromone extracts 4 g crude drug/kg for 5 days, plasma HPLC. The procedure:
To explore the influence of RS polysaccharide on the pharmacokinetics of chromones, 2.11 g, 1.05 g RS polysaccharide, and 2.11 g glucuronic acid were added to the three aliquots of chromone components, with one aliquot left as control. Thus, totally four test compounds were obtained, including chromone/pan-polysaccharide (CP), chromone/1/2polysaccharide (CHP), chromone/glucuronic acid (CG), and chromone, which served as control. Forty male Sprague-Dawley rats were used in this experiment. They were randomly divided into 4 groups, each consisting of 10 rats. The rats in these four groups were orally administered with CP, CHP, CG and chromones at the dose of 4 g crude drug (equivalent to 10 ml RS extracts) per kg body weight, respectively for five consecutive days. After the final drug delivery of day 5 (at 0.5, 1, 1.5, 2, 3, 5, 8, 12, 16, and 24 h/day), rats were anesthetized by ether inhalation and rat blood samples were obtained from the orbit vein and centrifuged immediately at 3,000 rpm for 10 min to yield plasma. Each plasma sample (100 μl) was mixed with 20 μl of 70% perchloric acid and vortexed and centrifuged at 3,000 rpm for 10 min. The supernatant were subjected to 0.45 μm microporous membrane and the filtrate was collected for subsequent high performance liquid chromatography (HPLC) analysis. Chromatographic separation and analysis using an L-2000 Elite HPLC system has been previously reported. Briefly, the separation of the analytes were performed on a Kromasil C18 column (200 mm × 4.6 mm i.d., particle size 5 μm), equipped with a Shim-pack security guard column at a column temperature of 25 °C. The binary mobile phase consisted of methanol and water. A flow rate of 1.0 ml/min with a gradient elution program as follows: 40–45% methanol at 0–5 min; 45–60% methanol at 5–10 min; 60–80% methanol at 10–15 min; 80–95% methanol at 15–20 min; 95–40% methanol at 20–30 min. The injection volume was 20 μl and detection wavelength was kept at 254 nm.

A short description of series [2]: Transformation of cimifugin in small intestine enzyme solution. The format is in vitro ADME, Sprague-Dawley rats. Conditions: 38 °C. The procedure: Small intestine segment was taken from ten 12 h-fasting male Sprague-Dawley rats. The intestine tissue was first frozen at −80 °C for 12 h, and then ground and centrifuged at 10,000 rpm for 10 min. The supernatant constituted the enzyme solution used in the experiment. To explore the influence of RS polysaccharide on the metabolism of cimifugin, three groups were designed: control group containing 40 μg cimifugin in 1.2 ml enzyme solution; RS polysaccharide/cimifugin group containing 40 μg cimifugin and 8.7 mg RS polysaccharide in 1.2 ml enzyme solution; glucuronic acid/cimifugin group containing 40 μg cimifugin and 8.7 mg glucuronic acid in 1.2 ml enzyme solution. These groups were put in 38 °C water bath for reaction, while samples were taken at 15 and 30 min. After deproteinization by methanol, these samples were centrifuged at 10,000 rpm for 10 min. Subsequently, the supernatant was collected and analyzed for HPLC analysis as described above.

The test system of a further series is Caco-2 cell monolayers. Nature of the series: Caco-2 bidirectional transport assay of cimifugin. The format is in vitro ADME. To be noted: for effect on flux/transport of cimifugin across Caco-2 monolayers: pretreatment or co-application with cimifugin, A→B flux, similar for B→A. The procedure:
Caco-2 cells were obtained from the American Type Culture Collection (ATCC). […] For the permeability test, cells were seeded in transwell supports with polycarbonate membrane (0.4 μm, 1.12 cm^2, Corning Costar) at a density of 6 × 10^4 cells/cm^2. The integrity of the monolayers was tested by measuring the transepithelial electrical resistance (TEER) before and after every experiment. Only monolayers with TEER >200 Ω/cm^2 were used. Test compounds in transport buffer were added to the donor compartments of either apical (A → B) or basolateral (B → A) wells of the Insert System and incubated at 37 °C. Samples were collected at 0, 30, 60, 90, 120, and 150 min time points and analyzed for HPLC analysis of content of cimifugin as described above.
In general terms: Passage across Caco-2 layers is used to estimate intestinal permeability.

A short description of series [3]: Metabolism study of PGCN and GML in simulated gastric fluid (SGF). The series is classed as in vitro ADME. To be noted: SGF pH 1.2, 37 °C, 2 h. The procedure: (§1) Simulated gastric fluid (SGF, pH 1.2) and simulated intestinal fluid (SIF, pH 6.8) were prepared based on Chinese Pharmacopeia (2010) and have been depicted previously. 100 μg PGCN or GML was added to 4 ml of either SGF or SIF to yield 4 reaction systems, i.e., PGCN/SGF (213.47 nM), PGCN/SIF (213.47 nM), GML/SGF (220.99 nM), GML/SIF (220.99 nM), respectively. Polysaccharides extracted in RS were added to these 4 reaction systems in accordance with the actual chromone-polysaccharide proportion, with each reaction further became three sub-systems, i.e., 0 polysaccharide/chrome, 1/2 polysaccharide/chromone, and pan-polysaccharide/chromone. Meanwhile, these 12 systems were allowed to react at 37 °C. Following 2 h, the reaction was stopped by 100 °C boiling for 10 min. Subsequently, these systems were evaporated to dryness and the residue was reconstituted in 1 ml methanol. After centrifugation at 3,000 rpm for 10 min, the supernatant was collected and used for HPLC analysis.

A short description of series [4]: Metabolism study of PGCN and GML in simulated intestinal fluid (SIF). The format is in vitro ADME. To be noted: SIF pH 6.8, 37 °C, 2 h. The procedure:
as §1

Series [5] is described as follows: Transport of chromones across semi-permeable membrane (dialysis bag) with or without RS polysaccharide. To be noted: 6 h; for total chromone: inside plus outside the membrane; for total chromone / Fluid inside the semi-permeable membrane, chromone / Fluid outside the semi-permeable membrane, chromone: pH 7.8, 37 °C; for Fluid inside the semi-permeable membrane, chromone / Fluid outside the semi-permeable membrane, chromone: sum of PGCN and cimifugin. The format is physicochemical. The procedure: Dialysis bags made by semi-permeable membrane materials were used in this analysis. ~3 cm long dialysis bags were first processed as the following procedures in succession: 1) boiled for 5 min in distilled water; 2) rinsed by 60 °C water for 2 min; 3) rinsed by small intestine buffer for 2 min; 4) rinsed by small intestine buffer for 2 min; 5) immersed in buffer at 4 °C. After 12 h, these processed dialysis bags were tied tightly at one end to form a dialysis bag. 1 ml small intestine buffer (pH 7.8) containing cimifugin, PGCN, cimifugin + polysaccharide, or PGCN + polysaccharide was added into this bag and a glass bead was put in to keep this bag vertical. When the other end was tied (an air bubble was retained), this dialysis bag was suspended in 15 ml small intestine buffer. This system was left to stand for 6 h in 37 °C water bath and chromone content inside and outside of this semi-permeable membrane was measured by HPLC analysis.

The mark [6] stands for this setting: small intestine buffer pH 7.8, 37 °C, mean ± SD, n = 10.
[7] abbreviates: apical application (A→B), A: cimifugin, B: polysaccharide, C: LY335979, D: troleandomycin, mean ± SD, n = 10.
Where [8] appears, read: basolateral application (B→A), A: cimifugin, B: polysaccharide, C: LY335979, D: troleandomycin, mean ± SD, n = 10.

Like-named read-outs stand apart in the source and are kept apart here.

Regarding `O=C[C@H](O)[C@@H](O)[C@H](O)[C@H](O)C(=O)O` [glucuronic acid, Glucuronic acid, reference compound], the “effect on absorption of chromone in the form of cimifugin (AUC at 3 h and later)” value in series [1] (co-administered orally with chromone extract, rat plasma) is “did not affect”. Further, the “effect on cimifugin degradation / transformation into PGCN in small intestine enzyme solutions (in words)” value in series [2] (added to cimifugin in enzyme solution) is “did not produce any effect on cimifugin transformation”.

Consider `Cl.Cl.Cl.O[C@@H](COc1cccc2ncccc12)CN1CCN([C@@H]2c3ccccc3[C@@H]3[C@H](c4ccccc42)C3(F)F)CC1` [LY335979, Zosuquidar Trihydrochloride, reference compound], for which the “effect on flux/transport of cimifugin across Caco-2 monolayers” value in the series on Caco-2 cell monolayers was “not affected”.

As to `COc1c2c(cc3oc(COC4OC(CO)C(O)C(O)C4O)cc(=O)c13)OC(C(C)(C)O)C2` (centres unmarked) [PGCN, prime-O-glucosylcimifugin], in series [3], the “transformation in SGF (in words)” value is “a small amount of PCGN was converted into cimifugin”. In addition, in series [4], the “transformation in SIF (in words)” value was “an overwhelmingly large amount of PGCN was transformed into cimifugin”. In series [4] (mean ± SD, n = 10), the “HPLC peak area, PGCN” value was 5159 ± 1238. Also, in series [5], the total chromone is reported as 105.0 ± 0.1 nmol; the “Fluid inside the semi-permeable membrane, chromone” value was 15.2 ± 0.5 nmol; the “Fluid outside the semi-permeable membrane, chromone” value came out at 89.8 ± 0.4 nmol. In addition, in series [5] (setting [6]), the “Fluid inside the semi-permeable membrane, PGCN” value amounted to 15.2 ± 0.5 nmol and the “Fluid outside the semi-permeable membrane, PGCN” value was 89.8 ± 0.4 nmol.

By Tmax is commonly meant the time from dosing to the highest level. Regarding `COc1c2c(cc3oc(CO)cc(=O)c13)O[C@H](C(C)(C)O)C2` [cimifugin], the Tmax in series [1] (read-out: Tmax of cimifugin in rat plasma (first peak of double-peak curve)) stood at 1.5 h. Also, the Tmax in series [1] (read-out: Tmax of cimifugin in rat plasma (second peak of double-peak curve)) turned out to be 8 h. Besides, the “detection in plasma of chromone treated rats (HPLC qualitative analysis)” value in series [1] (whole process of the experiment, data not shown) was “only cimifugin was detected”. Also, in the series with Caco-2 cell monolayers (setting [7]), the “Basolateral content of cimifugin, 30 min” value is given as 15.21 ± 2.34 ng; the “Basolateral content of cimifugin, 60 min” value is given as 30.85 ± 3.64 ng; the “Basolateral content of cimifugin, 90 min” value is recorded as 143.92 ± 12.32 ng; the “Basolateral content of cimifugin, 120 min” value came to 236.01 ± 22.86 ng. In the series on Caco-2 cell monolayers (setting [7]), the “Basolateral content of cimifugin, 150 min” value was found to be 201.33 ± 15.32 ng. Also, in the series with Caco-2 cell monolayers (setting [8]), the “Apical content of cimifugin, 30 min” value amounted to 26.87 ± 1.54 ng; the “Apical content of cimifugin, 60 min” value stood at 50.45 ± 2.27 ng; the “Apical content of cimifugin, 90 min” value was determined as 234.35 ± 11.36 ng; the “Apical content of cimifugin, 120 min” value was found to be 354.24 ± 15.47 ng. The “Apical content of cimifugin, 150 min” value in the series on Caco-2 cell monolayers (setting [8]) amounted to 289.46 ± 15.45 ng. Also, in series [2] (rat small intestine enzyme solution), the “stability in small intestine enzyme solutions (in words)” value is “underwent degradation to a great extent”. In addition, in series [5], the total chromone was found to be 161.7 ± 0.5 nmol; the “Fluid inside the semi-permeable membrane, chromone” value worked out at 18.1 ± 0.6 nmol; the “Fluid outside the semi-permeable membrane, chromone” value was determined as 143.6 ± 0.1 nmol. Also, in series [5] (setting [6]), the “Fluid inside the semi-permeable membrane, cimifugin” value amounted to 18.1 ± 0.6 nmol and the “Fluid outside the semi-permeable membrane, cimifugin” value turned out to be 143.6 ± 0.1 nmol.

In the case of `CO[C@H]1C[C@H](O[C@H]2[C@H](C)[C@@H](O[C@@H]3O[C@H](C)C[C@H](N(C)C)[C@H]3OC(C)=O)[C@@H](C)C[C@@]3(CO3)C(=O)[C@H](C)[C@@H](OC(C)=O)[C@@H](C)[C@@H](C)OC(=O)[C@@H]2C)O[C@@H](C)[C@@H]1OC(C)=O` [troleandomycin, Troleandomycin, reference compound], the “effect on flux/transport of cimifugin across Caco-2 monolayers” value with Caco-2 cell monolayers was “significantly enhanced”.

Consider `COc1c2c(cc3oc(C)cc(=O)c13)OC(C(C)(C)OC1OC(CO)C(O)C(O)C1O)C2` [GML, 4′-O-β-D-glucosyl-5-O-methylvisamminol], for which the “transformation in SGF (in words)” value in series [3] was “a little GML was converted into PGCN”. Besides, the “HPLC peak area, GML” value in series [3] (mean ± SD, n = 10) is listed as 1369608 ± 83550; in series [4] (mean ± SD, n = 10), 1369720 ± 112480. In addition, in series [4], the “transformation in SIF (in words)” value is given as “underwent no change”.
